Holding throughout (assay type): biochemical
One experiment deals with CDK12 wt/CycK (Homo sapiens (Human), UniProt Q9NYV4). Nature of the experiment: Radiometric protein kinase assay (33PanQinase), Assay Condition A (thiol containing). Particulars: thiol containing (1.2 mM DTT), ATP 0.3 μM. The gist of the method: (§1)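 Recombinant human kinases assayed radiometrically (33PanQinase) with 33P-ATP incorporation into substrate, 60 min at 30° C, thiol-containing buffer, 1% DMSO final. Ten concentrations from 1×10^−04M to 3×10^−09M tested in singlicate. Residual activity normalized to no-enzyme and no-inhibitor controls; IC50 by least-squares fit.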

The next experiment addresses CDK12 (Homo sapiens (Human), UniProt Q9NYV4). Description: Radiometric protein kinase assay (33PanQinase), Assay Condition B (thiol-free). The conditions noted are these: thiol-free (1 mM TCEP). Here is the method:
The IC50 profile of compounds was determined using one protein kinase in a customized, thiol free assay. […] Prior to testing, the 1×10^−03 M stock solutions in column 2 of the master plates were subjected to a serial, semi-logarithmic dilution using 100% DMSO as a solvent. […] Column 1 and 7 were filled with 100% DMSO as controls. Subsequently, 2×10 microliter from each well of the serial diluted copy plates were aliquoted with a 96 channel pipettor into two identical sets of “compound dilution plates”. All plates were barcoded for automated identification and tracking purposes. […] All compounds were stored as powder until being solubilized in DMSO. Solubilized compounds were stored as 1×10^−02M/100% DMSO stock solutions. Prior to the assay process, 90 microliters of H2O were added to each well of a set of compound dilution plates. To minimize potential precipitation, the H2O was added to each plate only a few minutes before the transfer of the compound solutions into the assay plates. Each plate was shaken thoroughly, resulting in compound dilution plates with a final of 10% DMSO. For each assay, 5 microliters of solution from each well of the compound dilution plates/10% DMSO were transferred into the assay plate. The final volume of the assay was 50 μl. All compounds were tested at 10 final assay concentrations in the range from 1×10^−05M to 3×10^−10 M, in singlicate. The final DMSO concentration in the reaction cocktails was 1% in all cases. […] This was done so there would be no interference with the key cysteines in the proteins of interest.
For data analysis, the median value of the counts in column 1 (n=8) of each assay plate was defined as “low control”. This value reflects unspecific binding of radioactivity to the plate in the absence of a protein kinase but in the presence of the substrate. The median value of the counts in column 7 of each assay plate (n=8) was taken as the “high control”, i.e. full activity in the absence of any inhibitor. The difference between high and low control was taken as 100% activity. As part of the data evaluation the low control value from a particular plate was subtracted from the high control value as well as from all 80 “compound values” of the corresponding plate. The residual activity (in %) for each well of a particular plate was calculated by using the following formula: Res. Activity (%)=100×[(cpm of compound−low control)/(high control−low control)]
The fitting method used was a least-squares fit.

The target of a further experiment is CDK2/CycA2 (Homo sapiens (Human), UniProt P24941). Nature of the experiment: Radiometric protein kinase assay (33PanQinase), Assay Condition A (thiol containing). Particulars: thiol containing (1.2 mM DTT), ATP 0.3 μM. An outline of the steps:
as §1

The next experiment addresses CDK2 (Homo sapiens (Human), UniProt P24941). Description: Radiometric protein kinase assay (33PanQinase), Assay Condition B (thiol-free). The conditions noted are these: thiol-free (1 mM TCEP). The procedure: The IC50 profile of compounds was determined using one protein kinase in a customized, thiol free assay. […] Prior to testing, the 1×10^−03 M stock solutions in column 2 of the master plates were subjected to a serial, semi-logarithmic dilution using 100% DMSO as a solvent. […] Column 1 and 7 were filled with 100% DMSO as controls. Subsequently, 2×10 microliter from each well of the serial diluted copy plates were aliquoted with a 96 channel pipettor into two identical sets of “compound dilution plates”. All plates were barcoded for automated identification and tracking purposes. […] All compounds were stored as powder until being solubilized in DMSO. Solubilized compounds were stored as 1×10^−02M/100% DMSO stock solutions. Prior to the assay process, 90 microliters of H2O were added to each well of a set of compound dilution plates. To minimize potential precipitation, the H2O was added to each plate only a few minutes before the transfer of the compound solutions into the assay plates. Each plate was shaken thoroughly, resulting in compound dilution plates with a final of 10% DMSO. For each assay, 5 microliters of solution from each well of the compound dilution plates/10% DMSO were transferred into the assay plate. The final volume of the assay was 50 μl. All compounds were tested at 10 final assay concentrations in the range from 1×10^−05M to 3×10^−10 M, in singlicate. The final DMSO concentration in the reaction cocktails was 1% in all cases. […]
For data analysis, the median value of the counts in column 1 (n=8) of each assay plate was defined as “low control”. This value reflects unspecific binding of radioactivity to the plate in the absence of a protein kinase but in the presence of the substrate. […] The residual activity (in %) for each well of a particular plate was calculated by using the following formula: Res. Activity (%)=100×[(cpm of compound−low control)/(high control−low control)]
The residual activities for each concentration and the compound IC50 values were calculated using Quattro Workflow V3.1.1 (Quattro Research GmbH, Munich, Germany; www.quattro-research.com). […]

In a further experiment the target is CDK7/CycH/MAT1 (Homo sapiens (Human), UniProt P50613). Description: Radiometric protein kinase assay (33PanQinase), Assay Condition A (thiol containing). The conditions noted are these: thiol containing (1.2 mM DTT), ATP 3.0 μM. An outline of the steps: as §1

The structures appear in SMILES notation. Some results are limits rather than exact numbers.

Sequence of CDK12 (Q9NYV4 whole entry): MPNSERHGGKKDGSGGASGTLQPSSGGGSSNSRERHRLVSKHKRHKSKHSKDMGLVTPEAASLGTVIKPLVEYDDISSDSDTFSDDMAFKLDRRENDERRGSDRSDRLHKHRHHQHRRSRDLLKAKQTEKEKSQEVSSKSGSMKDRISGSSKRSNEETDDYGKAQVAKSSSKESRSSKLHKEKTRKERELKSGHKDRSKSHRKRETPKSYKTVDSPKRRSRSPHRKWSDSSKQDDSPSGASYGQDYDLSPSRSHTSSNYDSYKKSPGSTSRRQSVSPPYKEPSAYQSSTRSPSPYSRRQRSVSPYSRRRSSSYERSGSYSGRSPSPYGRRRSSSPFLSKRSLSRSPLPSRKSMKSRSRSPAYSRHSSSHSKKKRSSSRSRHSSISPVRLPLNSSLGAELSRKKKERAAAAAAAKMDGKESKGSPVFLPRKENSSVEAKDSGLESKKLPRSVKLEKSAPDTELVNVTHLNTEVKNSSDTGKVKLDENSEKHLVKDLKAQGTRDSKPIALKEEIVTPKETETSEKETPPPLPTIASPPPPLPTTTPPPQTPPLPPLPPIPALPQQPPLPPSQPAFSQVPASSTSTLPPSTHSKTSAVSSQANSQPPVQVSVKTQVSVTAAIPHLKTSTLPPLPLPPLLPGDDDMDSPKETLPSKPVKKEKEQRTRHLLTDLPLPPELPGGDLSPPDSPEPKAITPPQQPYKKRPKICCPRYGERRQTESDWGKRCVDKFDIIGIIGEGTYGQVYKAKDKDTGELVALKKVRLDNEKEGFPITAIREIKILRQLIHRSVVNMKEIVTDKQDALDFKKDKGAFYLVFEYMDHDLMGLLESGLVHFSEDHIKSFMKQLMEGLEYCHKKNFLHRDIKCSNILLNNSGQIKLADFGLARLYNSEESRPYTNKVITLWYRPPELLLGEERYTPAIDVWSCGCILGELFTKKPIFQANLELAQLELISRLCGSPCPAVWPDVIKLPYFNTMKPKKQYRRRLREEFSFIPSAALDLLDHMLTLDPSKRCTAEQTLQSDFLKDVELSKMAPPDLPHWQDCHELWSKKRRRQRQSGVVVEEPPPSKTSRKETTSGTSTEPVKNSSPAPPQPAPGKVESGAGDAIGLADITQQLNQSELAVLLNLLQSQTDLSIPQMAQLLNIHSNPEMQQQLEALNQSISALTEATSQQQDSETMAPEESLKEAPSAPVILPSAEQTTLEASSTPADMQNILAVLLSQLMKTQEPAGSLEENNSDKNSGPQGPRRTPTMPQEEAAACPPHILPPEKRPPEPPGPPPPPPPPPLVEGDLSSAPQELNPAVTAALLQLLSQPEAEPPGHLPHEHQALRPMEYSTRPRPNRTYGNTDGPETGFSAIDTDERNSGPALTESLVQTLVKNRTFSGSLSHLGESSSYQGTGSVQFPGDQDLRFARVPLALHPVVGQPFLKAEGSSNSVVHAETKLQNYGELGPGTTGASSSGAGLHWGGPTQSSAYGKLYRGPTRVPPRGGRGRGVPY
Sequence of CDK12 (O75909 whole entry partner): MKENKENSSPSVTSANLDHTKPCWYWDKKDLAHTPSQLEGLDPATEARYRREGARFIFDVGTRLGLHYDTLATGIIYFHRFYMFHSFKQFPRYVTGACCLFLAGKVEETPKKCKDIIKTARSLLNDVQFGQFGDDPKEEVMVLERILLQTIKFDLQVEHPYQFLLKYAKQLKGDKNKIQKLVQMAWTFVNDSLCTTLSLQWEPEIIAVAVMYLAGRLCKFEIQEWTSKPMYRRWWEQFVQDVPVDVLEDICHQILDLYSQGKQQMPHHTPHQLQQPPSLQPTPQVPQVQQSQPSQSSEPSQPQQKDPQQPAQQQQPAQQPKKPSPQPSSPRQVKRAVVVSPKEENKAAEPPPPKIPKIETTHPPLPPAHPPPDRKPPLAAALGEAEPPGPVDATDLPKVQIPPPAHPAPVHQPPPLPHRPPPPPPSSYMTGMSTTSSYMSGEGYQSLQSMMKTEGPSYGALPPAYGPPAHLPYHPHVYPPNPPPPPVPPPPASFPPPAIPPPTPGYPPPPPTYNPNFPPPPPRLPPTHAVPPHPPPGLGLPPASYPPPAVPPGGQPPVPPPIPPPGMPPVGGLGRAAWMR
Sequence of CDK12 wt/CycK (Q9NYV4 whole entry): as the sequence (Q9NYV4 whole entry) above
Sequence of CDK12 wt/CycK (O75909 whole entry partner): as the sequence (O75909 whole entry partner) above
Sequence of CDK7/CycH/MAT1 (P50613 whole entry): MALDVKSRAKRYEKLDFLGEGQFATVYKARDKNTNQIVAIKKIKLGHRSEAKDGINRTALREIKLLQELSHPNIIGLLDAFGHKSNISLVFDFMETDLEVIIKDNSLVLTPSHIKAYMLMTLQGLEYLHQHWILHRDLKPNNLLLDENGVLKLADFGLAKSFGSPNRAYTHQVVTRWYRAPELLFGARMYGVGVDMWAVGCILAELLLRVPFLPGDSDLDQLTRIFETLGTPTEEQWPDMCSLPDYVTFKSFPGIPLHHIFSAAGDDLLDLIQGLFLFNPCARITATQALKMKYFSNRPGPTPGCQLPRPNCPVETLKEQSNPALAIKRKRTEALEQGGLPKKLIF
Sequence of CDK7/CycH/MAT1 (P51946 whole entry partner): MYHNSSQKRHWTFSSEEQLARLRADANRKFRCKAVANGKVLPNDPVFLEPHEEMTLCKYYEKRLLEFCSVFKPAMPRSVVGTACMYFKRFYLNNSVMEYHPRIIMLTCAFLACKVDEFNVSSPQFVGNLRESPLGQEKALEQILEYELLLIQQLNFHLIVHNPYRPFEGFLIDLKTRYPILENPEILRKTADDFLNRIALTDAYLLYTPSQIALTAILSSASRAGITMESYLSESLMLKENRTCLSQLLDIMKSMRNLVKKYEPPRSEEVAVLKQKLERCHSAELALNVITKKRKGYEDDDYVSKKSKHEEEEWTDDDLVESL
Sequence of CDK7/CycH/MAT1 (P51948 whole entry partner): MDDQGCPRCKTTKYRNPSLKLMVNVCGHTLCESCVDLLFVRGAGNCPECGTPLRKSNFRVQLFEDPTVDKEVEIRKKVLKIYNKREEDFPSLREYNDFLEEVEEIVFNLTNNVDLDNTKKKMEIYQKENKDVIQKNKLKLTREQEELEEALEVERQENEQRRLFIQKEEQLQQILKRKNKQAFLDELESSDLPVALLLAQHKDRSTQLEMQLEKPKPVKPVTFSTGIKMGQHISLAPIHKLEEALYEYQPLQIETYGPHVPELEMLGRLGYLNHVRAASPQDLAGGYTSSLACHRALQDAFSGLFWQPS

One may read the IC50 as the concentration needed to halve the response being measured. Lower therefore signals greater potency. With `C=CC(=O)Nc1ccc(C(=O)N2CC[C@@H](Nc3ncc4ccccc4n3)C2)cc1` [Example 26, (R)-N-(4-(3-(quinazolin-2-ylamino)pyrrolidine-1-carbonyl)phenyl)acrylamide], the half-inhibitory concentration (IC50) was at most 100 nM on CDK12 wt/CycK and below 100 nM against CDK12.
The like results for `C=CC(=O)Nc1ccc(C(=O)N2CC[C@@H](Nc3ncc4cc(F)ccc4n3)C2)cc1` [Example 28, (R)-N-(4-(3-((6-fluoroquinazolin-2-yl)amino)pyrrolidine-1-carbonyl)phenyl)acrylamide] were, in that order, at most 100 nM and below 100 nM.
`C=CC(=O)Nc1ccc(C(=O)N2CC[C@@H](Nc3ncc4ccc(S(C)(=O)=O)cc4n3)C2)cc1` [Example 33, (R)-N-(4-(3-((7-(methylsulfonyl)quinazolin-2-yl)amino)pyrrolidine-1-carbonyl)phenyl)acrylamide]: the IC50 is at most 100 nM on CDK12 wt/CycK and below 100 nM against CDK12.
Take `C=CC(=O)Nc1ccc(C(=O)N2CC[C@@H](Nc3ncc4ccc(OC)cc4n3)C2)cc1` [Example 34, (R)-N-(4-(3-((7-methoxyquinazolin-2-yl)amino)pyrrolidine-1-carbonyl)phenyl)acrylamide]: the IC50 on CDK12 wt/CycK is at most 100 nM; on CDK12, below 100 nM.
For the compound `C=CC(=O)Nc1ccc(C(=O)N2CC[C@@H](Nc3ncc4ccc(C#N)cc4n3)C2)cc1` [Example 37, (R)—N-(4-(3-((7-cyanoquinazolin-2-yl)amino)pyrrolidine-1-carbonyl)phenyl)acrylamide], the IC50 is at most 100 nM at CDK12 wt/CycK and below 100 nM against CDK12.
In the case of `C=CC(=O)Nc1ccc(C(=O)N2CC[C@@H](Nc3ncc4ccc(=O)n(C(C)C)c4n3)C2)cc1` [Example 43, (R)—N-(4-(3-((8-isopropyl-7-oxo-7,8-dihydropyrido[2,3-d]pyrimidin-2-yl)amino)pyrrolidine-1-carbonyl)phenyl)acrylamide], the values for the 50% inhibitory concentration (IC50) against CDK12 wt/CycK and at CDK12 were at most 100 nM and below 100 nM, respectively.
On the same counts, the results for `CCC(=O)Nc1ccc(C(=O)N2CC[C@@H](Nc3ncc4ccccc4n3)C2)cc1` [Example 44, (R)—N-(4-(3-(quinazolin-2-ylamino)pyrrolidine-1-carbonyl)phenyl)propionamide] are 100 to 1000 nM and 100 to 1000 nM.
On the same counts, the results for `C=CC(=O)Nc1ccc(C(=O)N2CC[C@@H](Nc3ncc4ccccc4n3)C2)cc1F` [Example 62, (R)—N-(2-fluoro-4-(3-(quinazolin-2-ylamino)pyrrolidine-1-carbonyl)phenyl)acrylamide] are at most 100 nM and below 100 nM.
Consider `C=CC(=O)N(C)c1ccc(C(=O)N2CC[C@@H](Nc3ncc4ccccc4n3)C2)cc1` [Example 74, (R)—N-methyl-N-(4-(3-(quinazolin-2-ylamino)pyrrolidine-1-carbonyl)phenyl)acrylamide], for which the IC50 against CDK2/CycA2 and on CDK2 was 1000 to 10000 nM in each case.
With `CN(C)C/C=C/C(=O)Nc1ccc(C(=O)N2CC[C@@H](Nc3ncc4ccccc4n3)C2)cc1Cl` [Example 82, (R,E)-N-(2-chloro-4-(3-(quinazolin-2-ylamino)pyrrolidine-1-carbonyl)phenyl)-4-(dimethylamino)but-2-enamide], the concentration for half-maximal inhibition (IC50) fell in the range of 100 to 1000 nM against CDK7/CycH/MAT1, 100 to 1000 nM against CDK12 wt/CycK and 1000 to 10000 nM on CDK2/CycA2.
As for `CN(C)C/C=C/C(=O)N1CCOc2cc(C(=O)N3CC[C@@H](Nc4ncc5ccccc5n4)C3)ccc21` [Example 84, (R,E)-4-(dimethylamino)-1-(7-(3-(quinazolin-2-ylamino)pyrrolidine-1-carbonyl)-2H-benzo[b][1,4]oxazin-4(3H)-yl)but-2-en-1-one], the IC50 on CDK7/CycH/MAT1 is 100 to 1000 nM; against CDK12 wt/CycK it was 100 to 1000 nM; against CDK2/CycA2 it was 1000 to 10000 nM.
Turning to `C=CC(=O)Nc1cccc(C(=O)N2CC[C@@H](Nc3ncc4ccccc4n3)C2)c1` [Example 87, (R)—N-(3-(3-(quinazolin-2-ylamino)pyrrolidine-1-carbonyl)phenyl)acrylamide], the concentration for half-maximal inhibition (IC50) at CDK7/CycH/MAT1, at CDK12 wt/CycK and on CDK2/CycA2 was 100 to 1000 nM throughout.
With `C=CC(=O)Nc1ccc(C(=O)N2CC[C@@H](Nc3ncc4ccccc4n3)C2)cc1Cl` [Example 88, (R)—N-(2-chloro-4-(3-(quinazolin-2-ylamino)pyrrolidine-1-carbonyl)phenyl)acrylamide], the IC50 at CDK12 wt/CycK is at most 100 nM; against CDK2/CycA2, 1000 to 10000 nM; on CDK2, 1000 to 10000 nM; on CDK12 it was below 100 nM.
Take `CN(C)C/C=C/C(=O)N1CCCc2cc(C(=O)N3CC[C@@H](Nc4ncc5ccccc5n4)C3)ccc21` [Example 89, (R,E)-4-(dimethylamino)-1-(6-(3-(quinazolin-2-ylamino)pyrrolidine-1-carbonyl)-3,4-dihydroquinolin-1(2H)-yl)but-2-en-1-one]: the IC50 lay within 100 to 1000 nM at CDK7/CycH/MAT1, 100 to 1000 nM on CDK12 wt/CycK and 1000 to 10000 nM against CDK2/CycA2.
Take `C=CC(=O)Nc1ccc(C(=O)N2CC[C@@H](Nc3ncc4cccc(F)c4n3)C2)cc1` [Example 90, (R)—N-(4-(3-((8-fluoroquinazolin-2-yl)amino)pyrrolidine-1-carbonyl)phenyl)acrylamide]: the IC50 is 1000 to 10000 nM at CDK7/CycH/MAT1, 100 to 1000 nM against CDK12 wt/CycK and 1000 to 10000 nM on CDK2/CycA2.
Regarding `C=CC(=O)Nc1ccc(C(=O)N2CC[C@@H](Nc3ncc4c(F)cccc4n3)C2)cc1` [Example 91, (R)—N-(4-(3-((5-fluoroquinazolin-2-yl)amino)pyrrolidine-1-carbonyl)phenyl)acrylamide], the results for the IC50 against CDK7/CycH/MAT1, against CDK12 wt/CycK and against CDK2/CycA2 were 1000 to 10000 nM, 100 to 1000 nM and 1000 to 10000 nM, respectively.
As to `C=CC(=O)Nc1ccc(C(=O)N2CC[C@@H](Nc3ncc4cc(F)ccc4n3)C2)cc1C` [Example 92, (R)—N-(4-(3-((6-fluoroquinazolin-2-yl)amino)pyrrolidine-1-carbonyl)-2-methylphenyl)acrylamide], the values for the concentration for half-maximal inhibition (IC50) at CDK7/CycH/MAT1, against CDK12 wt/CycK and against CDK2/CycA2 were 1000 to 10000 nM, at most 100 nM and 1000 to 10000 nM, respectively.
As to `C=CC(=O)Nc1ccc(C(=O)N2CC[C@@H](Nc3ncc4ccc(S(C)(=O)=O)cc4n3)C2)cc1C` [Example 93, (R)—N-(2-methyl-4-(3-((7-(methylsulfonyl)quinazolin-2-yl)amino)pyrrolidine-1-carbonyl)phenyl)acrylamide], the IC50 was 1000 to 10000 nM against CDK7/CycH/MAT1, at most 100 nM against CDK12 wt/CycK and 100 to 1000 nM against CDK2/CycA2.
For `C=C(CC)C(=O)Nc1ccc(C(=O)N2CC[C@@H](Nc3ncc4ccccc4n3)C2)cc1` [Example 94, (R)-2-methylene-N-(4-(3-(quinazolin-2-ylamino)pyrrolidine-1-carbonyl)phenyl)butanamide], the IC50 lay in the range of 1000 to 10000 nM against CDK7/CycH/MAT1, 100 to 1000 nM at CDK12 wt/CycK and 1000 to 10000 nM against CDK2/CycA2.
For `C=CS(=O)(=O)Nc1ccc(C(=O)N2CC[C@@H](Nc3ncc4ccccc4n3)C2)cc1` [Example 95, (R)—N-(4-(3-(quinazolin-2-ylamino)pyrrolidine-1-carbonyl)phenyl)ethenesulfonamide], the IC50 was in the range of 100 to 1000 nM against CDK7/CycH/MAT1, 100 to 1000 nM against CDK12 wt/CycK and 1000 to 10000 nM against CDK2/CycA2.
Consider `C=CC(=O)Nc1ccc(C(=O)N2C[C@H](Nc3ncc4ccccc4n3)[C@@H](C)C2)cc1` [Example 96, N-(4-((3S,4R)-3-methyl-4-(quinazolin-2-ylamino)pyrrolidine-1-carbonyl)phenyl)acrylamide], for which the half-inhibitory concentration (IC50) fell in the range of 10000 to 30000 nM at CDK7/CycH/MAT1, 1000 to 10000 nM at CDK12 wt/CycK and 30000 to 100000 nM on CDK2/CycA2.

These data come from patent US11447493B2 (Kinnate Biopharma Inc., priority 2018, dated 2022).
